Measured values as given in patent US12209144B2, “Cyclic peptides as proprotein convertase subtilisin/kexin type 9 (PCSK9) inhibitors for the treatment of metabolic disorders” (Novartis AG, priority 2018, dated 2025).
Bridge positions count the residues as written; N and C are the ends. Square brackets hold non-standard residues; d marks the D form. Peptide text beside a SMILES is read from it. ξ: configuration not given here. Phe(3,4-Cl2) = N[C@@H](Cc1ccc(Cl)c(Cl)c1)C(=O)O; Bip = N[C@@H](Cc1ccc(-c2ccccc2)cc1)C(=O)O; Phe(4-Cl) = N[C@@H](Cc1ccc(Cl)cc1)C(=O)O; Phe(3-F) = N[C@@H](Cc1cccc(F)c1)C(=O)O; NMeF = CN[C@@H](Cc1ccccc1)C(=O)O; hSer = N[C@@H](CCO)C(=O)O; NMeA = CN[C@@H](C)C(=O)O; ξD = NC(CC(=O)O)C(=O)O

Target: human PCSK9 (Homo sapiens, UniProt Q8NBP7)
Sequence (Q8NBP7 153-692): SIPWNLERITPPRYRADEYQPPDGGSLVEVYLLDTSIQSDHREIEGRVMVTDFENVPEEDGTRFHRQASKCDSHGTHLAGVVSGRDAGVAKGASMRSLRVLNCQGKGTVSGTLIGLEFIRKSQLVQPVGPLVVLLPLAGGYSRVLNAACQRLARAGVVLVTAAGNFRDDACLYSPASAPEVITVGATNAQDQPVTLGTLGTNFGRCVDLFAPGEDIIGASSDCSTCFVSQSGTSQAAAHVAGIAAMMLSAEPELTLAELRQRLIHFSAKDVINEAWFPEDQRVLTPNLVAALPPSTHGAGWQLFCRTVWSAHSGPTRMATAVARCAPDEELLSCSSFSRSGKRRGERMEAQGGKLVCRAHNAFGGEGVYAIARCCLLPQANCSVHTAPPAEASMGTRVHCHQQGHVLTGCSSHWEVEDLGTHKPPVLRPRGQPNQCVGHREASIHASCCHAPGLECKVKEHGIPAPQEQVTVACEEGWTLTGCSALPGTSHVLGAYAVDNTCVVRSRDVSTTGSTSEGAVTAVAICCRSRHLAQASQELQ
Sequence (Q8NBP7 31-152 partner limits assumed): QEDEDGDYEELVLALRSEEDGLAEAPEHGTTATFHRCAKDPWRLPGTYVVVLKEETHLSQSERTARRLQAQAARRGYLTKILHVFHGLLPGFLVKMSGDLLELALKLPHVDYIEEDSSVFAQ
Experiment: PCSK9 ligand binding assay (TR-FRET): interference with binding of human PCSK9 to human LDLR
Details: for Maximum % inhibition: PCSK9 FRET assay, efficacy (Amax), 0% = DMSO, 100% = 1 uM unlabeled human PCSK9
Protocol: The activity of cyclic polypeptides according to the disclosure as PCSK9 can be assessed using a time resolved fluorescence resonance energy transfer (TR-FRET) assay. This time resolved fluorescence resonance energy transfer (TR-FRET) assay measures the ability of a cyclic polypeptides of the disclosure to interfere with the binding of human PCSK9 to human LDLR, providing measures of both potency (IC50) and efficacy (Amax).
Solutions of varying concentrations are prepared by diluting a cyclic polypeptide of the disclosure in dimethylsulfoxide (DMSO) and the resulting solutions are pipetted into a plate. DMSO is used as a negative control. An intermediate plate is prepared in by transferring a known amount of each polypeptide solution and of the control from the compound plate into a corresponding well containing assay buffer and mixing thoroughly. A third plate is then prepared to be used for the assay by adding Human PCSK9 Alexa Fluor 647, followed by a known amount of each solution from the intermediate plate. Unlabeled human PCSK9 in assay buffer containing DMSO is used as a positive control for the assay. Following incubation, Human LDLR extracellular domain-Europium Kryptate is added to each well of the assay plate and the resulting mixture is incubated for an additional period of time. The TR-FRET signal is measured and the FRET ratio (FRET/Europium) is used to calculate the IC50 and Amax of the cyclic polypeptides.
The PCSK9 binding of the cyclic polypeptides of the disclosure were measured using a time resolved fluorescence resonance energy transfer (TR-FRET) assay. This time resolved fluorescence resonance energy transfer (TR-FRET) assay measures the ability of a cyclic polypeptide of the disclosure to interfere with the binding of human PCSK9 to human LDLR, providing measures of both potency (IC50) and efficacy (Amax).
• Human PCSK9 • Human PCSK9 Alexa Fluor 647 • Human LDLR extracellular domain-Europium Kryptate • Proxi plate-low volume assay plate (PerkinElmer #6008280) • Greiner V-bottom (Greiner BioOne #781280) • Assay Buffer • 20 mM HEPES, pH 7.5 • 150 mM NaCl • 1 mM CaCl2 • 0.01% v/v Tween20 • 0.01% w/v BSA
A master compound plate was prepared in a Greiner V bottom plate by diluting cyclic polypeptides of the disclosure in dimethylsulfoxide to the correct concentration for the desired top concentration based on the desired final concentration: for a 30 uM final concentration the master plate concentration is 1.5 mM (68 uL DMSO+12 uL 10 mM of a cyclic polypeptide of the disclosure), for a 10 uM final concentration the master plate concentration is 0.5 mM (76 uL DMSO+4 uL 10 mM of a cyclic polypeptide of the disclosure), for a 3 uM final concentration the master plate concentration is 150 uM (69 uL DMSO+1 uL 10 mM a cyclic peptide of the disclosure). These solutions were pipetted into columns 1 and 11 of the compound plate. Threefold serial dilutions were generated in columns 2-10 and 12-20 of the compound plate by transferring 10 uL into 20 μL of DMSO. Columns 21 and 22 of the compound plate were negative controls containing DMSO alone.
An intermediate plate was generated in a Greiner V bottom plate by transferring 8 uL from each well of the master plate into a corresponding well containing 92 μL of assay buffer and mixing thoroughly.
A Proxi plate-low volume assay plate was used for the assay. To all wells of the plate was added 10 μL of 16 nM Human PCSK9 Alexa Fluor 647, followed by 5 uL from the intermediate plate. […] Following a 30 minute incubation, 5 μL of 4 nM Human LDLR extracellular domain-Europium Kryptate was added and the mixture was incubated for an additional 2 hours.
The TR-FRET signal was measured on an EnVision or PheraStar instrument with a […] delay, 330 nm excitation and 665 nm emission (FRET), and 330 nm excitation and 615 nm (Europium). The FRET ratio (FRET/Europium) was used for calculations. […]

| SMILES | Maximum % inhibition [%] | IC50 (TR-FRET, Human PCSK9 Alexa Fluor 647 and Human LDLR extracellular domain-Europium Kryptate) [nM] |
| --- | --- | --- |
| CC(C)[C@@H]1NC(=O)[C@H](Cc2ccccc2)NC(=O)CSC[C@@H](C(N)=O)NC(=O)[C@@H]2CCCN2C(=O)[C@H](C)NC(=O)C(CC(=O)O)NC(=O)[C@H](C)N(C)C(=O)[C@H](Cc2ccc(Cl)cc2)NC(=O)[C@H](C)N(C)C(=O)[C@H](Cc2ccccc2)NC(=O)[C@H]([C@@H](C)O)NC(=O)[C@H]([C@@H](C)O)NC(=O)[C@H](CCO)NC1=O (stereo partly drawn) [Example 2-3, Ac*-F-V-HomoSer-T-T-F-(N-Me)A-(p-Cl)F-(N-Me)A-D-A-P-C*-NH2] ({CH2CO}-FV[hSer]TTF[NMeA][Phe(4-Cl)][NMeA][ξD]APC-NH2; thioether N-13) | 75 | – |
| CC(C)[C@@H]1NC(=O)[C@H](Cc2ccccc2)NC(=O)CSC[C@@H](C(=O)NCC(N)=O)NC(=O)[C@@H]2CCCN2C(=O)[C@H](CO)NC(=O)[C@H](CCC(=O)O)NC(=O)[C@H](C)N(C)C(=O)[C@H](Cc2ccc(Cl)c(Cl)c2)NC(=O)[C@H](C)N(C)C(=O)[C@H](Cc2ccc(-c3ccccc3)cc2)NC(=O)[C@H]([C@@H](C)O)NC(=O)[C@H]([C@@H](C)O)NC(=O)[C@H](CC(=O)O)NC1=O [Example 1-26, Ac*-F-V-D-T-T-B-(N-Me)A-(3,4-diCl)F-(N-Me)A-E-S-P-C*-G-NH2] ({CH2CO}-FVDTT[Bip][NMeA][Phe(3,4-Cl2)][NMeA]ESPCG-NH2; thioether N-13) | 84 | – |
| CC(C)[C@@H]1NC(=O)[C@H](Cc2ccccc2)NC(=O)CSC[C@@H](C(=O)NCC(N)=O)NC(=O)[C@@H]2CCCN2C(=O)[C@H](CCCNC(=N)N)NC(=O)[C@H](CC(=O)O)NC(=O)[C@H](C)N(C)C(=O)[C@H](Cc2ccc(-c3ccccc3)cc2)NC(=O)[C@H](C)N(C)C(=O)[C@H](Cc2ccc(-c3ccccc3)cc2)NC(=O)[C@H]([C@@H](C)O)NC(=O)[C@H]([C@@H](C)O)NC(=O)[C@H](CO)NC1=O [Example 1-2, Ac*-F-V-S-T-T-B-(N-Me)A-B-(N-Me)A-D-R-P-C*-G-NH2] | 41 | – |
| CC(C)[C@@H]1NC(=O)[C@H](Cc2ccccc2)NC(=O)CSC[C@@H](C(=O)NCC(N)=O)NC(=O)[C@@H]2CCCN2C(=O)[C@H](CO)NC(=O)[C@H](CC(=O)O)NC(=O)[C@H](C)N(C)C(=O)[C@H](Cc2ccc(-c3ccccc3)cc2)NC(=O)[C@H](C)N(C)C(=O)[C@H](Cc2ccc(-c3ccccc3)cc2)NC(=O)[C@H]([C@@H](C)O)NC(=O)[C@H]([C@@H](C)O)NC(=O)[C@H](CO)NC1=O [Example 1-8, Ac*-F-V-S-T-T-B-(N-Me)A-B-(N-Me)A-D-S-P-C*-G-NH2] ({CH2CO}-FVSTT[Bip][NMeA][Bip][NMeA]DSPCG-NH2; thioether N-13) | 58 | – |
| CCNC(=O)[C@@H]1CSCC(=O)N[C@@H](Cc2ccccc2)C(=O)N[C@@H](C(C)C)C(=O)N2CCC[C@H]2C(=O)N[C@@H]([C@@H](C)O)C(=O)N[C@@H]([C@@H](C)O)C(=O)N[C@@H](Cc2ccc(-c3ccccc3)cc2)C(=O)N(C)[C@@H](C)C(=O)N[C@@H](Cc2ccc(-c3ccccc3)cc2)C(=O)N(C)[C@@H](C)C(=O)N[C@@H](C)C(=O)N[C@@H](C)C(=O)N2CCC[C@H]2C(=O)N1 [Example 3-4, Ac*-F-V-P-T-T-B-(N-Me)A-B-(N-Me)A-A-A-P-C*-NHEt] ({CH2CO}-FVPTT[Bip][NMeA][Bip][NMeA]AAPC-NHEt; thioether N-13) | 49 | – |
| CCNC(=O)[C@@H]1CSCC(=O)N[C@@H](Cc2ccccc2)C(=O)N[C@@H](C(C)C)C(=O)N2CCC[C@H]2C(=O)N[C@@H]([C@@H](C)O)C(=O)N[C@@H]([C@@H](C)O)C(=O)N[C@@H](Cc2ccc(-c3ccccc3)cc2)C(=O)N(C)[C@@H](C)C(=O)N[C@@H](Cc2ccc(-c3ccccc3)cc2)C(=O)N(C)[C@@H](C)C(=O)N[C@@H](CCC(=O)O)C(=O)N[C@@H](C)C(=O)N2CCC[C@H]2C(=O)N1 [Example 3-3, Ac*-F-V-P-T-T-B-(N-Me)A-B-(N-Me)A-E-A-P-C*-NHEt] | 87 | – |
| CC(C)[C@@H]1NC(=O)[C@H](Cc2ccccc2)NC(=O)CSC[C@@H](C(=O)NCC(N)=O)NC(=O)[C@@H]2CCCN2C(=O)[C@H](CO)NC(=O)[C@H](CC(N)=O)NC(=O)[C@H](C)N(C)C(=O)[C@H](Cc2ccc(-c3ccccc3)cc2)NC(=O)[C@H](Cc2ccccc2)N(C)C(=O)[C@H](CO)NC(=O)[C@H]([C@@H](C)O)NC(=O)[C@H]([C@@H](C)O)NC(=O)[C@H](CC(=O)O)NC1=O [Example 1-3, Ac*-F-V-D-T-T-S-(N-Me)F-B-(N-Me)A-N-S-P-C*-G-NH2] ({CH2CO}-FVDTTS[NMeF][Bip][NMeA]NSPCG-NH2; thioether N-13) | 55 | – |
| CC(C)[C@@H]1NC(=O)[C@H](Cc2ccccc2)NC(=O)CSC[C@@H](C(=O)NCC(N)=O)NC(=O)[C@@H]2CCCN2C(=O)[C@H](C)NC(=O)[C@H](CCC(=O)O)NC(=O)[C@H](C)N(C)C(=O)[C@H](Cc2ccc(-c3ccccc3)cc2)NC(=O)[C@H](C)N(C)C(=O)[C@H](Cc2ccccc2)NC(=O)[C@H]([C@@H](C)O)NC(=O)[C@H]([C@@H](C)O)NC(=O)[C@H](CO)NC1=O [Example 1-24, Ac*-F-V-S-T-T-F-(N-Me)A-B-(N-Me)A-E-A-P-C*-G-NH2] ({CH2CO}-FVSTTF[NMeA][Bip][NMeA]EAPCG-NH2; thioether N-13) | 70 | – |
| CC(C)[C@@H]1NC(=O)[C@H]([C@@H](C)O)NC(=O)[C@H]([C@@H](C)O)NC(=O)[C@@H]2CCCN2C(=O)[C@H](C(C)C)NC(=O)[C@H](Cc2ccccc2)NC(=O)CSC[C@@H](C(N)=O)NC(=O)[C@@H]2CCCN2C(=O)[C@H](C)NC(=O)[C@H](CCC(=O)O)NC(=O)[C@H](C)N(C)C(=O)[C@H](Cc2ccc(Cl)cc2)NC(=O)[C@H](C)N(C)C1=O [Example 2-6, Ac*-F-V-P-T-T-V-(N-Me)A-(p-Cl)F-(N-Me)A-E-A-P-C*-NH2] ({CH2CO}-FVPTTV[NMeA][Phe(4-Cl)][NMeA]EAPC-NH2; thioether N-13) | 83 | – |
| CC(C)[C@@H]1NC(=O)[C@H](Cc2ccccc2)NC(=O)CSC[C@@H](C(=O)NCC(N)=O)NC(=O)[C@@H]2CCCN2C(=O)[C@H](CCCNC(=N)N)NC(=O)[C@H](CC(=O)O)NC(=O)[C@H](C)N(C)C(=O)[C@H](Cc2cccc(F)c2)NC(=O)[C@H](C)N(C)C(=O)[C@H](Cc2ccc(-c3ccccc3)cc2)NC(=O)[C@H]([C@@H](C)O)NC(=O)[C@H]([C@@H](C)O)NC(=O)[C@H](CO)NC1=O [Example 1-15, Ac*-F-V-S-T-T-B-(N-Me)A-(3-F)F-(N-Me)A-D-R-P-C*-G-NH2] ({CH2CO}-FVSTT[Bip][NMeA][Phe(3-F)][NMeA]DRPCG-NH2; thioether N-13) | 53 | 12 |
| CC(C)[C@@H]1NC(=O)[C@H](Cc2ccccc2)NC(=O)CSC[C@@H](C(=O)NCC(N)=O)NC(=O)[C@@H]2CCCN2C(=O)[C@H](Cc2cnc[nH]2)NC(=O)[C@H](CC(N)=O)NC(=O)[C@H](C)N(C)C(=O)[C@H](Cc2ccc(-c3ccccc3)cc2)NC(=O)[C@H](C)N(C)C(=O)[C@H](Cc2ccc(O)cc2)NC(=O)[C@H]([C@@H](C)O)NC(=O)[C@H](CO)NC(=O)[C@H](CC(=O)O)NC1=O [Example 1-4, Ac*-F-V-D-S-T-Y-(N-Me)A-B-(N-Me)A-N-H-P-C*-G-NH2] ({CH2CO}-FVDSTY[NMeA][Bip][NMeA]NHPCG-NH2; thioether N-13) | 60 | – |
| CC(C)[C@@H]1NC(=O)[C@H](Cc2ccccc2)NC(=O)CSC[C@@H](C(=O)NCC(N)=O)NC(=O)[C@@H]2CCCN2C(=O)[C@H](C)NC(=O)[C@H](CCC(=O)O)NC(=O)[C@H](C)N(C)C(=O)[C@H](Cc2ccc(-c3ccccc3)cc2)NC(=O)[C@H](Cc2ccccc2)N(C)C(=O)[C@H](C)NC(=O)[C@H]([C@@H](C)O)NC(=O)[C@H]([C@@H](C)O)NC(=O)[C@H](CC(=O)O)NC1=O [Example 1-16, Ac*-F-V-D-T-T-A-(N-Me)F-B-(N-Me)A-E-A-P-C*-G-NH2] ({CH2CO}-FVDTTA[NMeF][Bip][NMeA]EAPCG-NH2; thioether N-13) | 91 | – |
